We go through four molecules from patent US10125121B2, “FYN kinase inhibitors” (ROTTAPHARM BIOTECH S.R.L., priority 2015, dated 2018).

The target of assay [1] is active FYN (human recombinant, 62.7 kDa) (Homo sapiens, UniProt P06241). Description: In vitro kinase assay (Z′-LYTE FRET). As to conditions: read-out: IC50(nM) FYN INHIBITION
The assay is classed as biochemical. The method, then: Assays to determine the kinase inhibitory activity of compounds were performed using an automatic liquid handling device (Microlab STAR Hamilton) and Z′-LYTE™ Kinase Assay Platform, a Fluorescence Resonance Energy Transfer (FRET)-based assay platform compatible with high-throughput screening (HTS) applications. The assay employs a fluorescence-based, coupled-enzyme format and utilizes the differential sensitivity of phosphorylated and non-phosphorylated peptides to proteolytic cleavage.
All reagents were diluted in reaction buffer and the kinase reaction was carried out in a total volume of 10 μl, for 60 minutes at 25° C. The 0% Phosphorylation (i.e. no ATP) and 100% Phosphorylation (i.e. synthetically phosphorylated peptide supplied) Assay Controls, included in each plate, allowed to calculate the percent phosphorylation achieved in the specific reaction well. The 0% Inhibition and 0% Phosphorylation (i.e. 100% Inhibition) Controls define the dynamic range in the screen. At the end of incubation, a secondary reaction (the Development Reaction) started by adding 5 μl of Development Reagent, containing a site-specific protease that recognizes and cleaves non-phosphorylated peptides, and was interrupted after 60 minutes with 5 μl/sample of Stop Reagent.
The compounds were tested in a range of concentrations 10^−6-10^−9 M.
Results are expressed as percentage of inhibition and the IC50 values were calculated by non-linear curve fitting using GraphPad™ Prism software.

The subject of assay [2] is NF-kB activation in JB6 CI 41-5a (P+) cells. The assay is described as follows: Gene reporter (GR) assay, NF-kB luciferase after TNFα stimulation. The assay is classed as cell-based, murine. The note with it: Mus musculus; 1 h pre-treatment, 2 ng/ml TNFα for 4 h; read-out: IC50(nM) GR Inhibition. An excerpt:
To determine if the compounds of the invention were active also in a cellular model, a gene reporter assay was established in a cell line (JB6 CI 41-5a (P+)) know to activate Fyn kinase via an inflammatory stimuli (TNFα). GR assay measures the activation of the nuclear transcription factor NF-kB, situated down-stream the Fyn activation pathway. Products active in this analysis has to penetrate in the cell and inhibit the activation pathway of NF-kB.
The murine epithelial cell line JB6 CI 41-5a (P+) (ATCC® Cat. # CRL-2010) was stably transfected with the pGL4.32[luc2P/NFkB-RE/Hygro] vector (Promega). Clonal selection was achieved by limiting dilution in MEM (+Earle's BSS+1.5 g/l sodium bicarbonate+0.1 mM NEAA)+GlutaMAX™-I, +1 mM sodium pyruvate, +5% FBS+80 μg/ml Hygromycin B. The clones were tested for their response to TNFα stimulus. The obtained transfected cells (JB6(P+) NFkB-RE-luc2P T3-C10) contained a firefly luciferase gene (luc2P) under the control of minimal TATA promoter with multiple Nuclear Factor-kB response elements (NFkB-REs). These NFkB-REs are DNA binding sequences for the NF-kB transcription factor.
JB6(P+) NFkB-RE-luc2P T3-C10 cells were used for the analysis of NF-kB activity modulation, after TNFα stimulation, by Fyn-inhibitors (Hwang et al.; Biochem. Pharmacol. 2009, 77 (7):1213-22).
6000 cells/well were plated in a 96× well plate. After 24 h new medium without antibiotics was given. After further 24 h the cells were pre-treated with the different compounds for 1 h and then stimulated with 2 ng/ml TNFα for 4 h. In each experiments two positive standards were always used, and each tested condition was analyzed in quadruplicate.
The luciferase analysis was performed with ONE-Glo™+ToxLuciferase Reporter and Cell Viability Assay kit (Promega). This assay combined luciferase assay chemistry with a cell viability marker to better understand reporter gene expression in the context of cell health. The assay uses a two-step process. The first part of the assay was a non-lytic fluorescence assay (CellTiter-Fluor™ Cell Viability Assay) that measured the relative number of live cells in a culture population, as it measures a conserved and constitutive protease activity within live cells. The live-cell protease activity was restricted to intact viable cells and was measured using a fluorogenic, cell-permeant peptide substrate (glycyl-phenylalanyl-aminofluorocoumarin; GF-AFC). The generated fluorescent signal, proportional to the number of living cells, was measured with EnVision microplate reader (PerkinElmer) using an excitation wavelength of 400 nm and emission wavelength of 500 nm.
The second part of the assay uses the ONE-Glo™ Luciferase Assay System to quantify firefly luciferase reporter gene expression. The ONE-Glo™ Assay contained a fluoro-luciferin substrate, more tolerant to sample components than standard luciferase assay reagents. Luminescence was measured with EnVision microplate reader (PerkinElmer).
Compounds of Formula (I) were tested for their capacity to penetrate into the cell and inhibit the activation pathway of NF-kB.

For assay [3], the system named is CFA induced hyperalgesia. Description: CFA-induced inflammatory pain in rats (Randall-Selitto paw withdrawal threshold). The note with it: 3; rat, 24 h after administration. The assay is classed as in vivo. As for the experimental part:
Male Wistar rats were injected into the right hind footpad with 300 μg of Mycobacterium tuberculosis in 100 μL of liquid paraffin (Complete Freund's Adjuvant; CFA). Seventy-two hours later, compounds 2 and 26 were administered subcutaneously and 24 h after the administration, the response to noxious mechanical stimulation was assessed by measuring paw withdrawal threshold (PWT) with an analgesimeter of the Randall-Selitto type. Animals were gently restrained, and steadily increasing pressure was applied to the dorsal surface of both the ipsi-lateral (CFA-treated) and the contra-lateral paw via a dome-shaped plastic tip.
100% protection means that the animal treated with the compound and CFA can tolerate the same stimulus (weight) as the control animal which has not received CFA treatment.

active FYN (human recombinant, 62.7 kDa), sequence (P06241 whole entry): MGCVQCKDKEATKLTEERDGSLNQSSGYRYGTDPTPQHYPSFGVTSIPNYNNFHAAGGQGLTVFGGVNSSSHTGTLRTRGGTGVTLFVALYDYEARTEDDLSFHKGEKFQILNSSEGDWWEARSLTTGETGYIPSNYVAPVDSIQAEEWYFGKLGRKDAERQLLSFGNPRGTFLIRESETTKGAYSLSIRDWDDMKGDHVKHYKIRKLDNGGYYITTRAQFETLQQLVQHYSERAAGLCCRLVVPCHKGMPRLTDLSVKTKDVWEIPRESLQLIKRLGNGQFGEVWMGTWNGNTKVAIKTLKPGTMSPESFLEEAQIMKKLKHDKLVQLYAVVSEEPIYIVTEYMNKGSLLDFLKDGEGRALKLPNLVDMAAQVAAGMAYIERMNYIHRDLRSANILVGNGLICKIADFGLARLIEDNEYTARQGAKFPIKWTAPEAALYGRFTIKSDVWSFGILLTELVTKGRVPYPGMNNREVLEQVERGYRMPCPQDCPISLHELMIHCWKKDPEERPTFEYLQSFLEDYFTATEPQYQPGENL

For the molecule `CCc1cc(CN2CCN(c3nc(C)cc(Nc4cc(C5CC5)[nH]n4)n3)CC2)ccc1NC(=O)c1ccccc1F` [Compound 18, N-(4-((4-(4-((5-cyclopropyl-1H-pyrazol-3-yl)amino)-6-methylpyrimidin-2-yl)piperazin-1-yl)methyl)-2-ethylphenyl)-2-fluorobenzamide], the half-maximal inhibitory concentration (IC50) in assay [1] came out at 94 nM; in assay [2], 1370 nM.

For the molecule `O=C(Nc1ccc(CN2CCN(c3nccc(Nc4cc(C5CC5)[nH]n4)n3)CC2)cc1)c1cccnc1C(F)(F)F` [Compound 27, N-(4-((4-(4-((5-cyclopropyl-1H-pyrazol-3-yl)amino)pyrimidin-2-yl)piperazin-1-yl)methyl)phenyl)-2-(trifluoromethyl)-nicotinamide], the IC50 stood at 27 nM in assay [1] and 1340 nM in assay [2].

For the molecule `O=C(Nc1ccc(CN2CCN(c3nccc(Nc4cc(C5CC5)[nH]n4)n3)CC2)cc1)c1ncccc1C(F)(F)F` [Compound 26, N-(4-((4-(4-((5-cyclopropyl-1H-pyrazol-3-yl)amino)pyrimidin-2-yl)piperazin-1-yl)methyl)phenyl)-3-(trifluoromethyl)-picolinamide], in assay [3], the “% protective effect vs. CFA induced hyperalgesia” value is 100%. In addition, the half-maximal inhibitory concentration (IC50) in assay [1] came to 9 nM; in assay [2], 247 nM.

As for `O=C(Nc1ccc(CN2CCN(c3nccc(Nc4cc(C5CC5)[nH]n4)n3)CC2)cc1)c1nccnc1C(F)(F)F` [Compound 36, N-(4-((4-(4-((5-cyclopropyl-1H-pyrazol-3-yl)amino)pyrimidin-2-yl)piperazin-1-yl)methyl)phenyl)-3-(trifluoromethyl)-pyrazine-2-carboxamide], the IC50 in assay [1] was 8 nM; in assay [2] it was more than 2000 nM.

For orientation: IC50 means the point on the concentration scale where inhibition reaches its midpoint.
